We go through eight compounds from ChEMBL document CHEMBL5608169, “A chemical modification of a peroxisome proliferator-activated receptor pan agonist produced a shift to a new dual alpha/gamma partial agonist endowed with mitochondrial pyruvate carrier inhibition and antidiabetic properties” (Eur J Med Chem, 2024).

Assay [1] has as its target T1, Peroxisome proliferator-activated receptor alpha (Homo sapiens, UniProt Q07869).
T1 sequence (Q07869 whole entry): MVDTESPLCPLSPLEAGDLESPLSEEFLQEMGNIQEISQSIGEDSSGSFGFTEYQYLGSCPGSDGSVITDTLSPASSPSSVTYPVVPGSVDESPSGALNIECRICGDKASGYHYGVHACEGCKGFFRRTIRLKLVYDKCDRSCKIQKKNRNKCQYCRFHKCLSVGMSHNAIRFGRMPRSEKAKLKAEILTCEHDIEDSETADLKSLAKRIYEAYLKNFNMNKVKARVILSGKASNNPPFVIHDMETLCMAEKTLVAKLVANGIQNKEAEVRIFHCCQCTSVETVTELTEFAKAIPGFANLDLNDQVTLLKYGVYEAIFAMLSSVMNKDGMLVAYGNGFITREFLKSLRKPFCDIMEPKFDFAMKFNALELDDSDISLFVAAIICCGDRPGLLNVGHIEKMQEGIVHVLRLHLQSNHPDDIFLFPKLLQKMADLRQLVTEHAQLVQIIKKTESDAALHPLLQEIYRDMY
Description: Partial agonist activity at N-terminal Gal4-fused human PPARalpha LBD transfected in human HepG2 cells assessed as receptor transactivation incubated for 20 hrs by luciferase based luminometric assay. The format is cell-based.

For assay [2], the target named is T2, Peroxisome proliferator-activated receptor gamma (Homo sapiens, UniProt P37231).
T2 sequence (P37231 whole entry): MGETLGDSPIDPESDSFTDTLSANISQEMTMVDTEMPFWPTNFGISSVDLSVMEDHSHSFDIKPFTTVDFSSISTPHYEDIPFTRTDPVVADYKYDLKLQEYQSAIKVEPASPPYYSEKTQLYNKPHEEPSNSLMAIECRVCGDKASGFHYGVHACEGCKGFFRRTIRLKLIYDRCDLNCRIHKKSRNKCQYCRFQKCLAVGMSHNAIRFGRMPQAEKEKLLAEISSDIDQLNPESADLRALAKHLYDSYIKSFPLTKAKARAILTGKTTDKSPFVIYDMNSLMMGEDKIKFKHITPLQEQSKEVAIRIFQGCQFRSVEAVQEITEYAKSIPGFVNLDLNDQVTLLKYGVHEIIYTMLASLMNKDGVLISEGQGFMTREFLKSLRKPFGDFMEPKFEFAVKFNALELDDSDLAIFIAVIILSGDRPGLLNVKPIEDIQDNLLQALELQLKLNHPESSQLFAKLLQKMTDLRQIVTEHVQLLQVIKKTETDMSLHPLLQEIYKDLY
Description: Partial agonist activity at N-terminal Gal4-fused human PPARgamma LBD transfected in human HepG2 cells assessed as receptor transactivation incubated for 20 hrs by luciferase based luminometric assay. Format: cell-based.

Assay [3] has as its system Mus musculus. Description: Antihyperglycemic activity in STZ-induced diabetic Swiss albino mouse model assessed as fasting blood glucose at 30 mg/kg, po and measured immediately by glucose meter analysis (reference value: 365 +/-54.25 mg/dl). Format: functional.
For assay [4], the system named is Mus musculus. Description: Antihyperglycemic activity in STZ-induced diabetic Swiss albino mouse model assessed as triglyceride level at 30 mg/kg, po by biochemical analysis (reference value: 139.33 +/- 0.88 mg/dl). The format is functional.
The subject of assay [5] is Mus musculus. In words: Antihyperglycemic activity in STZ-induced diabetic Swiss albino mouse model assessed as fasting blood glucose at 30 mg/kg, po measured after 5 days by glucose meter analysis (reference value: […] +/- 63.77 mg/dl). The format is functional. Particulars: time 5 day.
In assay [6] the test system is Mus musculus. Description: Antihyperglycemic activity in STZ-induced diabetic Swiss albino mouse model assessed as total cholesterol level at 30 mg/kg, po by biochemical analysis (reference value: 184.33 +/- […]). Format: functional.
The test system of assay [7] is Mus musculus. Description: Antihyperglycemic activity in STZ-induced diabetic Swiss albino mouse model assessed as high-density lipoprotein cholesterol level at 30 mg/kg, po by biochemical analysis (reference value: 43.33 +/-[…]). Format: functional.
Assay [8] has as its system Mus musculus. In words: Antihyperglycemic activity in STZ-induced diabetic Swiss albino mouse model assessed as low-density lipoprotein cholesterol level at 30 mg/kg, po by biochemical analysis (reference value: 113.33 +/- 0.35 mg/dl). The format is functional.
Assay [9] has as its system Mus musculus. Description: Antihyperglycemic activity in STZ-induced diabetic Swiss albino mouse model assessed as very low-density lipoprotein cholesterol level at 30 mg/kg, po by biochemical analysis (reference value: 27.77 +/- 0.15 mg/dl). Format: functional.
Assay [10] deals with Mus musculus. Description: Antihyperglycemic activity in STZ-induced diabetic Swiss albino mouse model assessed as fasting blood glucose at 30 mg/kg, po measured after 10 days by glucose meter analysis (reference value: 435.2 +/-46.89 mg/dl). Format: functional. As to conditions: time 10 day.
Assay [11] has as its system Mus musculus. In words: Antihyperglycemic activity in STZ-induced diabetic Swiss albino mouse model assessed as fasting blood glucose at 30 mg/kg, po measured after 15 days by glucose meter analysis (reference value: 452.6 +/-48.94 mg/dl). Format: functional. Particulars: time 15 day.
In assay [12] the test system is HepG2. Description: Inhibition of lipid accumulation in oleic acid induced human HepG2 cells at 10 uM pretreated with oleic-acid for 24 hrs followed by compound addition and measured after 72 hrs by Oil Red O staining based analysis. Format: functional, cell-based.
The test system of assay [13] is C2C12. Description: Inhibition of mitochondrial pyruvate carrier in mouse C2C12 cells assessed as increase in OCR/ECAR ratio at 10 uM incubated for 24 hrs by Seahorse XF pro analyzer. The format is functional, cell-based.
The subject of assay [14] is C2C12. In words: Inhibition of mitochondrial pyruvate carrier in mouse C2C12 cells assessed as increase of extracellular acidification rate at 10 uM incubated for 24 hrs by Seahorse XF pro analyzer. Format: functional, cell-based.
In assay [15] the test system is C2C12. In words: Inhibition of mitochondrial pyruvate carrier in mouse C2C12 cells assessed as effect on ATP production at 10 uM incubated for 24 hrs by Seahorse XF pro analyzer. The format is functional, cell-based.
Assay [16] concerns C2C12. In words: Inhibition of mitochondrial pyruvate carrier in mouse C2C12 cells assessed as effect on oxygen consumption rate at 10 uM incubated for 24 hrs by Seahorse XF pro analyzer. Format: functional, cell-based.
The target of assay [17] is T3, Peroxisome proliferator-activated receptor delta (Homo sapiens, UniProt Q03181).
T3 sequence (Q03181 whole entry): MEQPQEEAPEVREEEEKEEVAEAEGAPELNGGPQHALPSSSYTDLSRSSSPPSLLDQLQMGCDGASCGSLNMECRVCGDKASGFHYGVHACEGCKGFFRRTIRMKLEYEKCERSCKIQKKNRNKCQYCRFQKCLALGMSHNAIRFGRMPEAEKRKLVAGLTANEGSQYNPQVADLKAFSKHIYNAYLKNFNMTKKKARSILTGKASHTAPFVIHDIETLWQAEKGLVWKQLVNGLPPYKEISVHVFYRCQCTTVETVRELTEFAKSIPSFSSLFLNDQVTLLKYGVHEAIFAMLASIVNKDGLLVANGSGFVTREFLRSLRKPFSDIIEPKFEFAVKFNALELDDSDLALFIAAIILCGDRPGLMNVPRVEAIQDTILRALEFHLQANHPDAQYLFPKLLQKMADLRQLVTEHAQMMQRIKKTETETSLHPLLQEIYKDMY
Description: Partial agonist activity at N-terminal Gal4-fused human PPARdelta LBD transfected in human HepG2 cells assessed as receptor transactivation incubated for 20 hrs by luciferase based luminometric assay. The format is cell-based.

What is called EC50 is the concentration giving half of the maximal effect.

The source made the active and inactive calls. No cut-off for these calls is given here.

On to `C[C@@H](Oc1ccc(-c2cccc3ccccc23)cc1)C(=O)O`, for which the EC50 in [1] amounted to 2.3 µM.
On to `CCC(Oc1ccc(-c2cccc3ccccc23)cc1)C(=O)O` (racemic), for which the EC50 in [2] was 10 µM; in [1] it was 0.46 µM.
For `CC[C@@H](Oc1ccc(-c2cccc3ccccc23)cc1)C(=O)O.NC1CCCCC1`, in that order: 7.3 µM and 1.42 µM.
Take `C[C@H](Oc1ccc(-c2cccc3ccccc23)cc1)C(=O)O`: the 50% effective concentration (EC50) in assay [1] turned out to be 1.8 µM.
For `CC[C@H](Oc1ccc(-c2cccc3ccccc23)cc1)C(=O)O.NC1CCCCC1`, the EC50 came to 11 µM in [2] and 0.183 µM in assay [1].
In the case of `CCc1ccc(CCOc2ccc(CC3SC(=O)NC3=O)cc2)nc1` (stereo not drawn) [PIOGLITAZONE], the Activity was determined as 441.2 mg/dL in assay [3]; 98.33 mg/dL in assay [4]; 351 mg/dL in assay [5]; 88.67 mg/dL in assay [6]; 19.67 mg/dL in assay [7]; 20.5 mg/dL in assay [8]. Also, the Activity in assay [9] stood at 19.33 mg/dL; in assay [10] it was 248 mg/dL; in assay [11], 224.2 mg/dL.
With `CN(CCOc1ccc(CC2SC(=O)NC2=O)cc1)c1ccccn1` (stereo not drawn), in assay [12], the inhibition result was “Active”. Also, the inhibition result in [13], in assay [14], in assay [15] and in [16] was “inactive” throughout.
As for `CCCc1c(OCCCOc2ccc(OCC(=O)O)cc2)ccc(C(C)=O)c1O`, in assay [17], the EC50 was 1.6 µM.
